Results as given in ChEMBL document CHEMBL1759874, “Feruloylacetone as the model compound of half-curcumin: synthesis and antioxidant properties” (2011).
The source made the active and inactive calls. No cut-off for these calls is given here.

Experiments:
[1] = Antioxidant activity against protection of autooxidation of linoleic acid at 50 uM by beta-carotene bleaching test; assay type: functional
[2] = Antioxidant activity against AAPH-induced DNA damage assessed as inhibition period for TBARS production; assay type: functional
[3] = tested on: Radical scavenging activity; assay: Antioxidant activity assessed as DPPH free radical scavenging activity at 50 uM; assay type: functional
[4] = tested on: Erythrocyte; assay: Antioxidant activity in human erythrocytes assessed as inhibition of hemin-induced hemolysis after 30 mins; assay type: functional, cell-based
[5] = Antioxidant activity against AAPH-induced hemolysis in human erythrocytes assessed as inhibition time; assay type: functional, Erythrocyte
[6] = Antioxidant activity against singlet oxygen radicals assessed as decrease of 4-nitroso-N,N-dimethylaniline decolorization at 250 uM after 40 mins by quenching assay; assay type: functional
[7] = Antioxidant activity against singlet oxygen radicals assessed as decrease of 4-nitroso-N,N-dimethylaniline decolorization after 40 mins by quenching assay; assay type: functional
[8] = Antioxidant activity against AAPH-induced methyl linoleate oxidation at 50 uM after 120 mins by beta-carotene bleaching test; assay type: functional
[9] = Antioxidant activity against hydroxyl radical-induced DNA damage assessed as TBARS production at 0.2 mM after 30 mins; assay type: functional
[10] = Antioxidant activity against AAPH-induced DNA damage assessed as TBARS production; assay type: functional
[11] = Antioxidant activity assessed as ABTS free radical scavenging activity at 50 uM; assay type: functional
[12] = Antioxidant activity assessed as galvinoxyl free radical scavenging activity at 25 uM; assay type: functional
[13] = tested on: Erythrocyte; assay: Antioxidant activity in human erythrocytes assessed as inhibition of hemin-induced hemolysis at up to 120 uM after 30 mins; assay type: functional, cell-based
[14] = Antioxidant activity against Cu2+/GSH-induced oxidation of DNA assessed as TBARS production at 0.2 mM after 30 mins; assay type: functional
[15] = Antioxidant activity against AAPH-induced methyl linoleate oxidation assessed as inhibition period at 50 uM by beta-carotene bleaching test; assay type: functional
[16] = Antioxidant activity against singlet oxygen radicals assessed as decrease of 4-nitroso-N,N-dimethylaniline decolorization at up to 240 uM after 40 mins by quenching assay; assay type: functional
[17] = Antioxidant activity against AAPH-induced hemolysis in human erythrocytes assessed as inhibition time at 18 uM; assay type: functional, Erythrocyte
[18] = tested on: Erythrocyte; assay: Antioxidant activity against AAPH-induced hemolysis in human erythrocytes at 54 uM; assay type: functional, cell-based
[19] = Antioxidant activity against AAPH-induced hemolysis in human erythrocytes assessed as inhibition time at 36 uM; assay type: functional, Erythrocyte
[20] = Antioxidant activity against singlet oxygen radicals assessed as decrease of 4-nitroso-N,N-dimethylaniline decolorization at 150 uM after 40 mins by quenching assay; assay type: functional

| SMILES | Activity [1] | TIME [2] [h] | Activity [3] [µM/min] | Activity [4] | Time [5] [min] | Activity [7] | Activity [9] | Activity [10] | Activity [11] [µM/min] | Activity [12] [µM/min] | Activity [13] | Activity ([8]; TDE = time-dependent effect) | TIME [15] [h] | other results |
| --- | --- | --- | --- | --- | --- | --- | --- | --- | --- | --- | --- | --- | --- | --- |
| CCOC(=O)/C(=C/c1ccc(O)c(OC)c1)C(C)=O | inactive | 0.0137 | 7.54 | Dose-dependent effect | 1.83 | Dose-dependent effect | Active | Active | 1.78 | 0.02 |  |  |  | Activity [6]: Active; Activity [8]: inactive |
| COc1cc(/C=C/C(=O)CC(C)=O)ccc1O | Active | 0.0237 | 22.3 |  | 2.38 | Dose-dependent effect | Active | Active | 6.04 | 0.13 | inactive | tde | 3.68 | Activity [14]: Active |
| COc1cc(/C=C/C(O)CC(C)O)ccc1O (stereo not given) | Active | 0.0185 | 8.57 |  | 2.05 |  | Active | Active | 6.26 | 0.13 | inactive | tde | 1.95 | Activity [16]: inactive |
| COc1cc(/C=C/C(=O)CC(=O)/C=C/c2ccc(O)c(OC)c2)ccc1O [CURCUMIN] |  | 0.0405 |  |  | 3.45 |  |  |  |  |  |  |  |  |  |
| COc1cc(CCC(=O)CC(C)=O)ccc1O | inactive | 0.0318 | 16.9 | Dose-dependent effect | 3.48 | Dose-dependent effect | Active | Active | 3.85 | 0.06 |  | tde | 2.67 |  |
| COc1cc(/C=C/C(=O)CC(C)=O)ccc1OCc1ccccc1 | inactive |  |  |  | 3.3 | Dose-dependent effect | Active | Active |  |  | inactive |  |  | Time [17]: 80 min; Activity [18]: Active; Time [19]: 56 min; Activity [20]: Active; Activity [8]: inactive |
| CC(=O)CC(=O)/C=C/c1ccc(O)c(O)c1 | Active | 0.0428 | 41.2 | Dose-dependent effect | 3.92 | Dose-dependent effect | Active | Active | 7.56 | 0.08 |  | tde | 3.73 | Activity [14]: Active |
